Assay results as given in US10098883B2, “(Aza)pyridopyrazolopyrimidinones and indazolopyrimidinones and their use” (BAYER PHARMA AKTIENGESELLSCHAFT, priority 2013, dated 2018).
Structures can show the parent of a compound that is named as a salt.

The compounds below were run on clot lysis (fibrinolysis) in human citrated plasma, tPA-induced (assay: Plasma-based clot lysis assay (5%)). Settings: diluted human citrated plasma (platelet-poor, 5%), fibrinogen 3 μM, CaCl2 10 mM, tPA 0.2 nM, 37° C., OD 405 nm.
Format: biochemical
Procedure: B-2. Plasma-based Clot Lysis Assay (5%)
The clot-lysis test system configures the kinetics of clot formation and degradation in vitro and allows quantifying modulation of the process by selected test compounds.
The test compounds were dissolved in 1% acetic acid and further complemented with an equal volume of DMSO. The resulting stock solutions were serially diluted in 0.5% acetic acid/50% DMSO. 1 μL aliquots of these solutions were placed into 384 well microplates (Greiner, black, transparent bottom), followed by 30 μL of diluted human citrated plasma (platelet-poor, final concentration: 5%; supplemented with fibrinogen, final concentration: 3 μM; dilution buffer: 20 mM HEPES, 150 mM NaCl, 0.01% Brij (pH 7)). The reactions were started by addition of […] of CaCl2 (final concentration: 10 mM), and tPA (tissue plasminogen activator, final concentration: 0.2 nM) in dilution buffer, followed by an additional volume of 20 μL dilution buffer for improved mixing. The reactions were incubated at 37° C. Clot formation and degradation was monitored spectrophotometrically by kinetic optical density measurements at 405 nm. IC50 values were determined by comparing the resulting time courses with the time course of a blank control reaction.

Question: How did the IC50 turn out when `O=c1cc(C2CCNCC2)n2nc3nc(-c4ccccc4)ccc3c2[nH]1` [Example 44, 8-Phenyl-4-(piperidin-4-yl)pyrido[2′,3′:3,4]pyrazolo[1,5-a]pyrimidin-2(1H)-one hydrochloride] was run?
Answer: 48 nM

Question: For `O=c1cc(C2CCNCC2)n2nc3nc(-c4ccc(F)cc4)cc(C(F)(F)F)c3c2[nH]1` [Example 42, 8-(4-Fluorophenyl)-4-(piperidin-4-yl)-10-(trifluoromethyl)pyrido[2′,3′:3,4]pyrazolo[1,5-a]pyrimidin-2(1H)-one hydrochloride], which IC50 is on record?
Answer: 110 nM

Question: With `CCOc1cccc2nn3c(C4CCNCC4)cc(=O)[nH]c3c12` [Example 26, 10-Ethoxy-4-(piperidin-4-yl)pyrimido[1,2-b]indazol-2(1H)-one hydrochloride] as the compound, how does the IC50 read?
Answer: 29 nM

Question: With `CC(C)Oc1cccc2nn3c(C4CCNCC4)cc(=O)[nH]c3c12` [Example 76, 10-Isopropoxy-4-(piperidin-4-yl)pyrimido[1,2-b]indazol-2(1H)-one hydrochloride] as the compound, how does the IC50 read?
Answer: 15 nM

Question: How did the IC50 turn out when `O=c1cc(C2CCNCC2)n2nc3c(Cl)cc(Cl)cc3c2[nH]1` [Example 6, 7,9-Dichloro-4-(piperidin-4-yl)pyrimido[1,2-b]indazol-2(1H)-one hydrochloride] was run?
Answer: 94 nM

Question: `O=c1cc(C2CCNCC2)n2nc3cccc(-n4ccnn4)c3c2[nH]1` [Example 99, 4-(Piperidin-4-yl)-10-(1H-1,2,3-triazol-1-yl)pyrimido[1,2-b]indazol-2(1H)-one hydrochloride] was tested. Which IC50 did it give?
Answer: 29 nM

Question: Which IC50 does the source give for `O=c1cc(C2CCNCC2)n2nc3nccc(-c4ccccc4)c3c2[nH]1` [Example 46, 10-Phenyl-4-(piperidin-4-yl)pyrido[2′,3′:3,4]pyrazolo[1,5-a]pyrimidin-2(1H)-one hydrochloride] here?
Answer: 17 nM

Question: With `Cc1ccc(Cl)c2c1nn1c(C3CCNCC3)cc(=O)[nH]c21` [Example 100, 10-Chloro-7-methyl-4-(piperidin-4-yl)pyrimido[1,2-b]indazol-2(1H)-one hydrochloride] as the compound, how does the IC50 read?
Answer: 30 nM

Question: `O=c1cc(C2CCNCC2)n2nc3cccc(OC(F)(F)F)c3c2[nH]1` [Example 37, 4-(Piperidin-4-yl)-10-(trifluoromethoxy)pyrimido[1,2-b]indazol-2(1H)-one hydrochloride] was tested. Which IC50 did it give?
Answer: 44 nM

Question: `C[C@H]1C[C@H](c2cc(=O)[nH]c3c4c(Br)cccc4nn23)CCN1` [Example 50, (−)-trans-10-Bromo-4-(2-methylpiperidin-4-yl)pyrimido[1,2-b]indazol-2(1H)-one hydrochloride] was tested. Which IC50 did it give?
Answer: 14 nM

Question: How did the IC50 turn out when `O=c1cc(C2CCNCC2)n2nc3c(C(F)(F)F)cccc3c2[nH]1` [Example 30, 4-(Piperidin-4-yl)-7-(trifluoromethyl)pyrimido[1,2-b]indazol-2(1H)-one hydrochloride] was run?
Answer: 46 nM

Question: `CC(C)Cc1cccc2nn3c(C4CCNCC4)cc(=O)[nH]c3c12` [Example 73, 10-Isobutyl-4-(piperidin-4-yl)pyrimido[1,2-b]indazol-2(1H)-one hydrochloride] was tested. Which IC50 did it give?
Answer: 23 nM

Question: For `COc1cccc(F)c1-c1cccc2nn3c(C4CCNCC4)cc(=O)[nH]c3c12` [Example 97, 10-(2-Fluoro-6-methoxyphenyl)-4-(piperidin-4-yl)pyrimido[1,2-b]indazol-2(1H)-one hydrochloride], which IC50 is on record?
Answer: 30 nM

Question: `O=c1cc(C2CCNCC2)n2nc3cccc(-c4ccccc4F)c3c2[nH]1` [Example 95, 10-(2-Fluorophenyl)-4-(piperidin-4-yl)pyrimido[1,2-b]indazol-2(1H)-one] was tested. Which IC50 did it give?
Answer: 18 nM

Question: For `CC(C)c1cccc2nn3c(C4CCNCC4)cc(=O)[nH]c3c12` [Example 62, 10-Isopropyl-4-(piperidin-4-yl)pyrimido[1,2-b]indazol-2(1H)-one hydrochloride], which IC50 is on record?
Answer: 18 nM

Question: Which IC50 does the source give for `O=c1cc(C2CCNCC2)n2nc3cccc(-n4cncn4)c3c2[nH]1` [Example 91, 4-(Piperidin-4-yl)-10-(1H-1,2,4-triazol-1-yl)pyrimido[1,2-b]indazol-2(1H)-one hydrochloride] here?
Answer: 27 nM

Question: For `O=c1cc(C2CCNCC2)n2nc3cccc(-c4ccccc4C(F)(F)F)c3c2[nH]1` [Example 67, 4-(Piperidin-4-yl)-10-[2-(trifluoromethyl)phenyl]pyrimido[1,2-b]indazol-2(1H)-one hydrochloride], which IC50 is on record?
Answer: 13 nM

Question: For `O=c1cc(C2CCNCC2)n2nc3cc(F)cc(F)c3c2[nH]1` [Example 23, 8,10-Difluoro-4-(piperidin-4-yl)pyrimido[1,2-b]indazol-2(1H)-one hydrochloride], which IC50 is on record?
Answer: 28 nM

Question: How did the IC50 turn out when `COc1cccc2nn3c(C4CCNCC4)cc(=O)[nH]c3c12` [Example 8, 10-Methoxy-4-(piperidin-4-yl)pyrimido[1,2-b]indazol-2(1H)-one hydrochloride] was run?
Answer: 46 nM

Question: `O=c1cc(C2CCNCC2)n2nc3ccc(Br)cc3c2[nH]1` [Example 19, 9-Bromo-4-(piperidin-4-yl)pyrimido[1,2-b]indazol-2(1H)-one hydrochloride] was tested. Which IC50 did it give?
Answer: 26 nM

Question: `O=c1cc(C2CCNCC2)n2nc3cccc(C4CCCC4)c3c2[nH]1` [Example 63, 10-Cyclopentyl-4-(piperidin-4-yl)pyrimido[1,2-b]indazol-2(1H)-one hydrochloride] was tested. Which IC50 did it give?
Answer: 13 nM

Question: How did the IC50 turn out when `O=c1cc(C2CCNCC2)n2nc3ccc(F)c(-c4ccccc4F)c3c2[nH]1` [Example 92, 9-Fluoro-10-(2-fluorophenyl)-4-(piperidin-4-yl)pyrimido[1,2-b]indazol-2(1H)-one hydrochloride] was run?
Answer: 27 nM

Question: With `Cc1cc(Br)c2c(c1)nn1c(C3CCNCC3)cc(=O)[nH]c21` [Example 89, 10-Bromo-8-methyl-4-(piperidin-4-yl)pyrimido[1,2-b]indazol-2(1H)-one hydrochloride] as the compound, how does the IC50 read?
Answer: 36 nM

Question: How did the IC50 turn out when `O=c1cc(C2CCNCC2)n2nc3cccc(-c4cccs4)c3c2[nH]1` [Example 88, 4-(Piperidin-4-yl)-10-(2-thienyl)pyrimido[1,2-b]indazol-2(1H)-one hydrochloride] was run?
Answer: 26 nM

Question: Which IC50 does the source give for `O=c1cc(C2CCNCC2)n2nc3ccc(Cl)cc3c2[nH]1` [Example 5, 9-Chloro-4-(piperidin-4-yl)pyrimido[1,2-b]indazol-2(1H)-one hydrochloride] here?
Answer: 37 nM

Question: Which IC50 does the source give for `O=c1cc(C2CCNCC2)n2nc3cccc(F)c3c2[nH]1` [Example 4, 10-Fluoro-4-(piperidin-4-yl)pyrimido[1,2-b]indazol-2(1H)-one hydrochloride] here?
Answer: 28 nM

Question: For `C[C@H]1C[C@H](c2cc(=O)[nH]c3c4c(-c5ccccc5)ccnc4nn23)CCN1` [Example 51, (−)-trans-4-(2-Methylpiperidin-4-yl)-10-phenylpyrido[2′,3′:3,4]pyrazolo[1,5-a]pyrimidin-2(1H)-one hydrochloride], which IC50 is on record?
Answer: 15 nM

Question: With `Cc1cc(C)c2c(n1)nn1c(C3CCNCC3)cc(=O)[nH]c21` [Example 32, 8,10-Dimethyl-4-(piperidin-4-yl)pyrido[2′,3′:3,4]pyrazolo[1,5-a]pyrimidin-2(1H)-one hydrochloride] as the compound, how does the IC50 read?
Answer: 210 nM

Question: How did the IC50 turn out when `CCOc1cccc2nn3c([C@@H]4CCN[C@@H](C)C4)cc(=O)[nH]c3c12` [Example 52, (−)-trans-10-Ethoxy-4-(2-methylpiperidin-4-yl)pyrimido[1,2-b]indazol-2(1H)-one hydrochloride] was run?
Answer: 13 nM

Question: With `O=c1cc(C2CCNCC2)n2nc3cccc(C4CC4)c3c2[nH]1` [Example 61, 10-Cyclopropyl-4-(piperidin-4-yl)pyrimido[1,2-b]indazol-2(1H)-one hydrochloride] as the compound, how does the IC50 read?
Answer: 24 nM

Question: Which IC50 does the source give for `O=c1cc(C2CCNCC2)n2nc3ccc(F)c(Cl)c3c2[nH]1` [Example 90, 10-Chloro-9-fluoro-4-(piperidin-4-yl)pyrimido[1,2-b]indazol-2(1H)-one hydrochloride] here?
Answer: 24 nM

Question: `O=c1cc(C2CCNCC2)n2nc3cccc(-n4cccn4)c3c2[nH]1` [Example 96, 4-(Piperidin-4-yl)-10-(1H-pyrazol-1-yl)pyrimido[1,2-b]indazol-2(1H)-one hydrochloride] was tested. Which IC50 did it give?
Answer: 26 nM

Question: For `O=c1cc(C2CCNCC2)n2nc3cccc(-c4ccccn4)c3c2[nH]1` [Example 82, 4-(Piperidin-4-yl)-10-(pyridin-2-yl)pyrimido[1,2-b]indazol-2(1H)-one hydrochloride], which IC50 is on record?
Answer: 20 nM

Question: With `Cc1cccc2nn3c(C4CCNCC4)cc(=O)[nH]c3c12` [Example 36, 10-Methyl-4-(piperidin-4-yl)pyrimido[1,2-b]indazol-2(1H)-one hydrochloride] as the compound, how does the IC50 read?
Answer: 18 nM

Question: With `O=c1cc(C2CCNCC2)n2nc3ccc(F)c(-c4ccccc4)c3c2[nH]1` [Example 77, 9-Fluoro-10-phenyl-4-(piperidin-4-yl)pyrimido[1,2-b]indazol-2(1H)-one hydrochloride] as the compound, how does the IC50 read?
Answer: 11 nM

Question: With `Nc1ccc2c(c1)nn1c(C3CCNCC3)cc(=O)[nH]c21` [Example 16, 8-Amino-4-(piperidin-4-yl)pyrimido[1,2-b]indazol-2(1H)-one hydrochloride] as the compound, how does the IC50 read?
Answer: 34 nM

Same assay, conditions: diluted human citrated plasma (platelet-poor, 5%), fibrinogen 3 μM, CaCl2 10 mM, tPA 0.2 nM, 37° C., OD 405 nm; hydrochloride

Question: Which IC50 does the source give for `O=c1cc(C2CCNCC2)n2nc3cccc(Br)c3c2[nH]1` [Example 60, 10-Bromo-4-(piperidin-4-yl)pyrimido[1,2-b]indazol-2(1H)-one hydrochloride] here?
Answer: 14 nM

Question: How did the IC50 turn out when `N#Cc1cccc2nn3c(C4CCNCC4)cc(=O)[nH]c3c12` [Example 53, 2-Oxo-4-(piperidin-4-yl)-1,2-dihydropyrimido[1,2-b]indazole-10-carbonitrile hydrochloride] was run?
Answer: 10 nM

Question: For `O=c1cc(C2CCNCC2)n2nc3cccc(Cl)c3c2[nH]1` [Example 3, 10-Chloro-4-(piperidin-4-yl)pyrimido[1,2-b]indazol-2(1H)-one hydrochloride], which IC50 is on record?
Answer: 28 nM
